Data from paper PMC6884575, “Suppression of FOXM1 activities and breast cancer growth in vitro and in vivo by a new class of compounds” (NPJ Breast Cancer, 2019).

Tests used:
[1] = Pharmacokinetics in mice after single s.c. or oral dose; assay type: in vivo, female CD1 mice; conditions: for AUC / Cmax / half-life: female, CD1, mouse, single dose, plasma
FOXM1 = target: T1, FOXM1 (Homo sapiens, UniProt Q08050); assay: tr-FRET competitive binding assay with Fl-NB-72 probe; design: we attached a terbium donor to purified, full length FOXM1 through a streptavidin-biotin linker; conditions: calculated from IC50 values; Supplementary Table 1; read-out: Ki, affinity for binding to FOXM1 protein
T1 sequence (Q08050 1-763): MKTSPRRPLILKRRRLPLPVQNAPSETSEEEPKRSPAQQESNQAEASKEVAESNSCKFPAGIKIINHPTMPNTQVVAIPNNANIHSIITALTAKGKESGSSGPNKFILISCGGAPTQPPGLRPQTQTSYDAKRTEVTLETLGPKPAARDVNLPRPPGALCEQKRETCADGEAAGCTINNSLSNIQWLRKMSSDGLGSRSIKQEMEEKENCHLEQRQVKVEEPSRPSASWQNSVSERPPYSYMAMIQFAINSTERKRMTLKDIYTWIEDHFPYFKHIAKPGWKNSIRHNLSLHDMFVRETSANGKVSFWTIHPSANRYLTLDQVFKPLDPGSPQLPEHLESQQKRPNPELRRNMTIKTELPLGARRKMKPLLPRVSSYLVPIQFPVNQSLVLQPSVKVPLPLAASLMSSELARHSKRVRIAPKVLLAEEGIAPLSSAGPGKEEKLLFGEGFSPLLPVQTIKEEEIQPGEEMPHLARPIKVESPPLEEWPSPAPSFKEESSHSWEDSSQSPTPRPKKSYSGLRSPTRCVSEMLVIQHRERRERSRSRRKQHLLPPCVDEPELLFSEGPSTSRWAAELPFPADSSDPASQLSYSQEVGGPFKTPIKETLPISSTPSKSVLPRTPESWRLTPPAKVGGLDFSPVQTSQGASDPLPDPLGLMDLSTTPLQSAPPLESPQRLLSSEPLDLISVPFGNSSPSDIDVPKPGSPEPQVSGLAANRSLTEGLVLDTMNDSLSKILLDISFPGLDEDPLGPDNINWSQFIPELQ
Description: Competitive binding assays of compound binding to FOXM1 by tr-FRET were done in FRET buffer (20 mM Tris, pH 7.5, 50 mM NaCl, 0.01% NP-40 detergent, 10% glycerol) with 0.3 mg/ml ovalbumin and 0.1 mM butylated hydroxy-anisole added fresh daily. Solutions of the protein, fluorescent probe and compound dilutions were prepared at 3× concentrations, the final dilution taking place as they were mixed together in equal portions on the microtiter plate.
Final concentrations were 10^−5 M to 10^−9 M, with the last point being buffer only, no compound. Fluorescein-NB-72 (Fl-NB- 72) was prepared at 1 mM in DMF and stored at −20 °C. It was diluted into FRET buffer to give 100 nM in the assay. Incubations were done in duplicate on black Molecular Devices 96-well microtiter plates. 5 μl of Fl-NB-72 and 5 μl of the compound dilutions, were mixed together on the plate. To this was added 5 µl biotin-FoxM1 and incubated in the dark at room temperature, for 1 h. […] To correct for background signals, biotin-FOXM1 was omitted, and diffusion-enhanced FRET incubations were done in duplicate on black Molecular Devices 96-well microtiter plates. Five microliter of Fl-NB-72 and 5 μl of the compound solutions were mixed together and then 5 µl of FRET buffer plus SaTb was added, mixed and incubated in the dark at room temperature, for 1 h. The tr-FRET signals measured as above were subtracted as a background from the first incubations that contained biotin-FOXM1. Graphs were prepared using Graph Pad/Prism 4.

[2] = tested on: DT22 cells and MCF7 cells; assay: Cell proliferation in DT22 and MCF7 cells; assay type: cell-based, human; conditions: 3 days
Description: WST-1 assay (Roche, Basel, Switzerland) was used to quantify cell viability as described.[38] […] All assays were performed in triplicate and analyzed using Graph Pad Prism 8.0.

[3] = tested on: DT22 breast tumor xenografts; assay: DT22 human breast tumor xenograft growth in NSG mice; assay type: in vivo; conditions: for tumor growth in vivo: low doses (2–20 mg/kg) s.c. daily or every other day; for animal body weight / growth of tumor xenografts: low doses s.c.: NB-115 2 or 6 mg/kg daily, NB-63 20 mg/kg daily then 10 mg/kg every other day from day 20; for tumor growth: DT22 tumors, NSG mice, s.c., 20 mg/kg every other day for 10 days then 10 mg/kg every other day
Description: For examination of the effects of compounds on breast tumor growth suppression, intact female NOD/SCID-gamma (NSG) mice were used as detailed previously.[39] DT-22 breast cancer cells (1 × 10^6 cells/mouse) were injected s.c. into the right axial mammary gland. Mice received s.c. injection or oral gavage daily or every second or third day as indicated, with vehicle or treatment compound, and tumor volume (length × width^2/2) was monitored over time.

[4] = tested on: FOXM1 target gene expression in MCF7 cells; assay: FOXM1 target gene expression by qRT-PCR; assay type: cell-based, human; conditions: MCF7, 24 h, compound at its IC50 for proliferation
Description: Total RNA was isolated using TRIzol (Invitrogen) and reverse transcribed using […] reverse transcriptase (New England BioLabs). Real-time PCR was performed using SYBRgreen PCR Master Mix (Quantabio) as described.[15] Relative mRNA levels of genes were normalized to the housekeeping gene 36B4, and fold-change calculated relative to the vehicle treated samples. Results are the average ± SD from at least two independent experiments carried out in triplicate. Primer sequences for the genes studied were obtained from the Harvard Primer Bank. Sequences are available on their website.

[5] = tested on: tamoxifen-resistant MCF7 breast cancer cells; assay: Proliferation of tamoxifen-resistant MCF7 cells; assay type: cell-based, human; conditions: 6 days, cell numbers
Description: resistant MCF7 cells. Cells were treated with NB-73 or trans-hydroxytamoxifen (OH-
Tam) for 6 days and cell numbers were monitored. Values are mean ± SD of three
(1 picture or pasted object on this page, not shown here)

Row | Cmax ([1]; oral, 40 mg/kg) [nM] | Ki (FOXM1) [nM] | blood levels of compound ([1]; after oral administration) | blood levels of compound ([1]; after s.c. injection) | AUC ([1]; oral, 60 mg/kg) [µM·h] | Cmax ([1]; oral, 60 mg/kg) [nM] | AUC ([1]; sc, 60 mg/kg) [µM·h] | Cmax ([1]; sc, 60 mg/kg) [nM] | half-life ([1]; oral, 60 mg/kg) [h] | half-life ([1]; sc, 60 mg/kg) [h] | Compound | tumor growth in vivo [3] | also measured
1 | 110 | 130 |  |  |  |  |  |  |  |  | CCN(CC)CCCCCCOc1ccc(C(c2ccc(OCCCCCCN(CC)CC)cc2)=C2[C@H]3C[C@@H]4C[C@@H](C[C@H]2C4)C3)cc1 [NB-51] |  | AUC ([1]; oral, 40 mg/kg): 1.81 µM·h; half-life ([1]; oral, 40 mg/kg): 20.1 h; AUC ([1]; sc, 20 mg/kg): 4.73 µM·h; Cmax ([1]; sc, 20 mg/kg): 180 nM; half-life ([1]; sc, 20 mg/kg): 61.8 h
2 | 400 |  | only very low levels | very high blood levels |  |  |  |  |  |  | C[N+]1(CCCCCCOc2ccc(C(c3ccc(Cl)cc3)=C3C4C[C@H]5C[C@@H](C4)C[C@H]3C5)cc2)CCCC1 [NB-63] | greatly suppress tumor growth | relative potency in suppressing cell proliferation [2]: potencies very similar to those of their parent amine compounds; AUC ([1]; oral, 40 mg/kg): 1.67 µM·h; half-life ([1]; oral, 40 mg/kg): 5.8 h; AUC ([1]; sc, 40 mg/kg): 158 µM·h; Cmax ([1]; sc, 40 mg/kg): 5010 nM; half-life ([1]; sc, 40 mg/kg): 31.5 h; animal body weight [3]: little impact on animal body weight; growth of tumor xenografts [3]: effective in suppressing the growth of tumor xenografts
3 |  | 190 |  |  | 3.23 | 80 | 14.8 | 580 |  |  | c1cc(C(=C2C3CC4CC(C3)CC2C4)c2ccc(OCCCCCCN3CCCC3)cc2)ccc1OCCCCCCN1CCCC1 [NB-65] |  | 
4 |  | 51 | only very low levels | very high blood levels | 0.29 | 71 | 127 | 7120 | 6.2 | 23.7 | C[N+]1(CCCCCCOc2ccc(C(=C3C4CC5CC(C4)CC3C5)c3ccc(OCCCCCC[N+]4(C)CCCC4)cc3)cc2)CCCC1 [NB-68] | greatly suppress tumor growth | relative potency in suppressing cell proliferation [2]: potencies very similar to those of their parent amine compounds; tumor growth [3]: greatly suppress tumor growth
5 |  |  |  |  | 8.32 | 220 | 10.2 | 270 | 51.2 | 222 | c1cc(C(c2ccc(OCCCCCCN3CCCCC3)cc2)=C2[C@H]3C[C@@H]4C[C@@H](C[C@H]2C4)C3)ccc1OCCCCCCN1CCCCC1 [NB-70] |  | 
6 |  |  | only very low levels | very high blood levels | 0.08 | 30 | 198 | 9520 |  | 33.2 | C[N+]1(CCCCCCOc2ccc(C(=C3C4CC5CC(C4)CC3C5)c3ccc(OCCCCCC[N+]4(C)CCCCC4)cc3)cc2)CCCCC1 [NB-71] | greatly suppress tumor growth | tumor growth [3]: greatly suppress tumor growth
7 |  |  |  |  | 11.3 | 320 | 15.9 | 370 | 60.6 | 302 | c1cc(C(=C2C3CC4CC(C3)CC2C4)c2ccc(OCCCCCCN3CCCCCC3)cc2)ccc1OCCCCCCN1CCCCCC1 [NB-72] |  | 
8 |  |  |  |  |  |  |  |  |  |  | CC/C(=C(\c1ccc(O)cc1)c1ccc(OCCN(C)C)cc1)c1ccccc1 [trans-hydroxytamoxifen, reference compound] |  | proliferation of tamoxifen-resistant MCF7 cells [5]: weakly stimulated

Row | Compound | Cmax ([1]; oral, 40 mg/kg) [nM] | Ki (FOXM1) [nM] | blood levels of compound ([1]; after oral administration) | blood levels of compound ([1]; after s.c. injection) | AUC ([1]; oral, 60 mg/kg) [µM·h] | Cmax ([1]; oral, 60 mg/kg) [nM] | AUC ([1]; sc, 60 mg/kg) [µM·h] | Cmax ([1]; sc, 60 mg/kg) [nM] | half-life ([1]; oral, 60 mg/kg) [h] | half-life ([1]; sc, 60 mg/kg) [h] | tumor growth in vivo [3] | also measured
9 | CC[N+](C)(CC)CCCCCCOc1ccc(C(=C2C3CC4CC(C3)CC2C4)c2ccc(OCCCCCC[N+](C)(CC)CC)cc2)cc1 [NB-115] | 100 |  |  |  |  |  |  |  |  |  | greatly suppress tumor growth | expression of ATF3, a gene suppressed by FOXM1 [4]: increased expression of ATF3; expression of FOXM1 stimulated target genes (FOXM1C, AURKB, CCNB1, PLK1) [4]: significantly reduced the expression; AUC ([1]; sc, 40 mg/kg): 746 µM·h; Cmax ([1]; sc, 40 mg/kg): 34700 nM; half-life ([1]; sc, 40 mg/kg): 38.6 h; animal body weight [3]: little impact on animal body weight; growth of tumor xenografts [3]: effective in suppressing the growth of tumor xenografts
